The melting point is the temperature, or range, at which the solid turns liquid.

Structures can show the parent of a compound that is named as a salt.

In the case of `O=C(Nc1ccc(C(F)(F)F)cc1)c1csc(Nc2cccnc2Cl)n1` [Example 51], the melting point lay within 232.5 to 234.3 °C.
As to `COc1ccc(NC(=O)c2csc(Cc3c(Cl)cccc3Cl)n2)cn1` [Example 23], the melting point fell in the range of 137.7 to 138.8 °C.
With `O=C(Nc1ccc(C(F)(F)F)nc1)c1csc(Cc2ccccc2Cl)n1` [Example 1, {2-[(2-Chlorophenyl)methyl](1,3-thiazol-4-yl)}-N-[6-(trifluoromethyl)(3-pyridyl)]carboxamide], the melting point fell in the range of 99 to 101 °C.
`Cc1cccc(C)c1Nc1nc(-c2nc3cc(C(F)(F)F)ccc3[nH]2)cs1` [Example 4, (2,6-Dimethylphenyl){4-[5-(trifluoromethyl)benzimidazol-2-yl](1,3-thiazol-2-yl)}amine] displayed a melting point of 250 to 251 °C.
The result for `Cc1ccccc1Cc1nc(C(=O)Nc2ccc(C(F)(F)F)nc2)cs1` [Example 39] reads 140.2 to 141.3 °C; that for `CC(C)c1ccc(NC(=O)c2cnc(Cc3c(Cl)cccc3Cl)[nH]2)cc1` (as salt: hydrochloride) [Example 12, {2-[(2,6-Dichlorophenyl)methyl]imidazol-5-yl}-N-[4-(methylethyl)phenyl]-carboxamide], 210 to 212 °C; that for `CC(=O)c1ccc(NC(=O)c2csc(Cc3c(Cl)cccc3Cl)n2)cc1` [Example 22], 98.8 to 106.9 °C.
In turn, `Clc1cccc(Cl)c1Nc1nc(-c2nc3cc(Br)ccc3[nH]2)cs1` [Example 74] registered a melting point of 267 to 268 °C.
`O=C(Nc1ccc(Br)cc1)c1csc(Nc2c(Cl)cncc2Cl)n1` [Example 53] yielded a melting point of 194.9 to 196.6 °C.
In the case of `CC(C)c1ccc(NC(=O)c2csc(Nc3ccccc3C(F)(F)F)n2)cc1` [Example 67], the melting point was in the range of 96 to 100 °C.
Turning to `O=C(Nc1ccc(C(F)(F)F)cc1)c1nc(Nc2c(Cl)cccc2Cl)sc1Br` [Example 14, {2-[(2,6-Dichlorophenyl)amino]-5-bromo(1,3-thiazol-4-yl)}-N-[4-(trifluoromethyl)phenyl]carboxamide], the melting point is 151 to 162 °C.
Under `O=C(Nc1ccc(C(F)(F)F)cc1)c1cnc(Cc2c(Cl)cccc2Cl)s1` [Example 10, {2-[(2,6-Dichlorophenyl)methyl](1,3-thiazol-5-yl)}-N-[4-(trifluoromethyl)-phenyl]carboxamide] stands 163 to 164 °C; under `CC(C)c1ccc(NC(=O)c2csc(Nc3c(Cl)cccc3C(F)(F)F)n2)cc1` [Example 70], 216 to 218 °C.
With `CC(C)c1ccc(NC(=O)c2csc(Nc3ccccc3F)n2)cc1` [Example 58], the melting point was in the range of 136.5 to 180.1 °C.
Regarding `FC(F)(F)c1ccc2nc(-c3csc(Cc4c(Cl)cccc4Cl)n3)[nH]c2c1` [Example 8, 2-[(2,6-Dichlorophenyl)methyl]-4-[6-(trifluoromethyl)benzimidazol-2-yl]-1,3-thiazole], the melting point lay within 187 to 189 °C.
In turn, `FC(F)(F)c1ccc2nc(-c3csc(Nc4c(Cl)cccc4Cl)n3)[nH]c2c1` [Example 15, (2,6-Dichloro-phenyl)-[4-(6-trifluoromethyl-1H-benzoimidazol-2-yl)-thiazol-2-yl]-amine] gave a melting point of 242 to 243 °C.
`O=C(Nc1ccc(C(F)(F)F)cc1)c1coc(Cc2c(Cl)cccc2Cl)n1` [Example 19, {2-[(2,6-Dichlorophenyl)methyl](1,3-oxazol-4-yl)}-N-[4-(trifluoromethyl)-phenyl]carboxamide] displayed a melting point of 182 to 184 °C.
Compound `CN(C)c1ccc(NC(=O)c2csc(Cc3c(Cl)cccc3Cl)n2)cc1` [Example 50] had a melting point of 172 to 174 °C.
`CC(C)(C)c1ccc(NC(=O)c2csc(Cc3c(Cl)cccc3Cl)n2)cc1` [Example 49] gave a melting point of 139 to 141 °C.
Under `COc1ccccc1Cc1nc(C(=O)Nc2ccc(C(F)(F)F)cc2)cs1` [Example 38] stands 107.2 to 108.2 °C; under `O=C(Nc1ccc(C(F)(F)F)cc1)c1csc(Nc2c(Cl)cccc2C(F)(F)F)n1` [Example 71], 243 to 244 °C; under `O=C(Nc1ccc(C(O)(C(F)(F)F)C(F)(F)F)cc1)c1csc(Nc2ccccc2F)n1` [Example 54], 158 to 160 °C.
Take `O=C(Nc1ccc(C(F)(F)F)cc1)c1csc(Cc2ccccc2Cl)n1` [Example 26]: the melting point fell in the range of 85.5 to 94 °C.
The result for `O=C(Nc1ccc(Br)cc1)c1csc(Nc2ncccc2Cl)n1` [Example 76] reads 226 to 258 °C.
In turn, `O=C(Nc1ccc(C(F)(F)F)cc1)c1csc(Nc2ccccc2C(F)(F)F)n1` [Example 66] had a melting point of 128 to 130 °C.
In the case of `O=C(Nc1ccc(C(F)(F)F)cc1)c1csc(Nc2c(Cl)cccc2Cl)n1` [Example 63, {2-[(2,6-dichlorophenyl)amino](1,3-thiazol-4-yl)}-N-[4-(trifluoromethyl)phenyl]-carboxamide], the melting point was in the range of 199 to 200 °C.
`Cc1cccc(C)c1Nc1nc(C(=O)Nc2ccc(Br)cc2)cs1` [Example 65] had a melting point of 208 to 209 °C.
`O=C(Nc1ccc(C(F)(F)F)cc1)c1csc(Nc2ccccc2Cl)n1` [Example 61] yielded a melting point of 192.5 to 193.1 °C.
`O=C(Nc1ccc(Br)cc1)c1cnc(Cc2c(Cl)cccc2Cl)[nH]1` (as salt: hydrochloride) [Example 13, {2-[(2,6-Dichlorophenyl)methyl]imidazol-5-yl}-N-(4-bromophenyl)carboxamide]: the melting point lay within 253 to 254 °C.
The result for `O=C(Nc1ccc(C(F)(F)F)cc1)c1cnc(Cc2c(Cl)cccc2Cl)[nH]1` [Example 11, {2-[(2,6-Dichlorophenyl)methyl]imidazol-5-yl}-N-[4-(trifluoromethyl)-phenyl]carboxamide] reads 253 to 255 °C.
`O=C(Nc1ccc(Br)cc1)c1csc(Nc2c(Cl)cccc2C(F)(F)F)n1` [Example 69] had a melting point of 262 to 264 °C.
In the case of `O=C(Nc1ccc(Br)cc1)c1csc(Cc2ccccc2F)n1` [Example 32], the melting point was in the range of 100.8 to 101 °C.
With `FC(F)(F)c1ccc2[nH]c(-c3csc(Nc4ncccc4Cl)n3)nc2c1` [Example 6, (3-Chloro(2-pyridyl)){4-[5-(trifluoromethyl)benzimidazol-2-yl](1,3-thiazol-2-yl)}amine], the melting point was in the range of 207 to 208 °C.
In turn, `O=C(Nc1ccc(Br)cc1)c1csc(Cc2c(Cl)cccc2Cl)n1` [Example 40] had a melting point of 126.6 to 132 °C.
`O=C(Nc1ccc(C(F)(F)C(F)(F)F)cc1)c1csc(Cc2c(Cl)cccc2Cl)n1` [Example 47]: the melting point was 95 to 96.4 °C.
Take `Cc1ccccc1Cc1nc(C(=O)Nc2ccc(Br)cc2)cs1` [Example 37]: the melting point lay in the range of 121.9 to 123.4 °C.
For `FC(F)(F)c1ccc2[nH]c(-c3csc(Nc4ccccc4C(F)(F)F)n3)nc2c1` [Example 72], the melting point fell in the range of 211 to 212 °C.
Consider `O=C(Nc1ccc(C(F)(F)F)cc1)c1csc(Nc2ncccc2Cl)n1` [Example 75], for which the melting point is 186 to 187 °C.
`O=C(Nc1ccc(Br)cc1)c1csc(Cc2ccccc2Cl)n1` [Example 33] had a melting point of 109.4 to 110.6 °C.
Take `O=C(Nc1ccc(C(O)(C(F)(F)F)C(F)(F)F)cc1)c1csc(Cc2c(Cl)cccc2Cl)n1` [Example 43]: the melting point is 197 to 197.8 °C.
`Cc1cccc(C)c1Nc1nc(C(=O)Nc2ccc(C(F)(F)F)cc2)cs1` [Example 3, {2-[(2,6-Dimethylphenyl)amino](1,3-thiazol-4-yl) }-N-[4-(trifluoromethyl)-phenyl]carboxamide] had a melting point of 216 to 218 °C.
`COc1ccccc1Cc1nc(C(=O)Nc2ccc(Br)cc2)cs1` [Example 36] displayed a melting point of 138 to 138.4 °C.
The result for `O=C(Nc1ccc(Br)cc1)c1coc(Cc2c(Cl)cccc2Cl)n1` [Example 78] reads 164 to 165 °C; that for `O=C(Nc1ccc(Br)cc1)c1csc(Nc2cccnc2Cl)n1` [Example 52], 214.7 to 216.2 °C.
The result for `CC(C)c1ccc(NC(=O)c2csc(Cc3ccccc3Cl)n2)cc1` [Example 25] reads 85.4 to 92.7 °C.
In the case of `CC(C)c1ccc(NC(=O)c2cnc(Cc3c(Cl)cccc3Cl)s2)cc1` [Example 9, {2-[(2,6-Dichlorophenyl)methyl](1,3-thiazol-5-yl)}-N-[4-(methylethyl)phenyl]-carboxamide], the melting point lay in the range of 169 to 175 °C.
For the compound `O=C(Nc1ccc(Br)cc1)c1csc(Nc2ccccc2C(F)(F)F)n1` [Example 68], the melting point was 151 to 153 °C.
Turning to `Cc1cccc(C)c1Nc1nc(C(=O)Nc2ccc(C(C)C)cc2)cs1` [Example 64], the melting point is 128 to 133 °C.
Take `Clc1cc2nc(-c3csc(Cc4c(Cl)cccc4Cl)n3)[nH]c2cc1Cl` [Example 18, 4-(5,6-Dichlorobenzimidazol-2-yl)-2-[(2,6-dichlorophenyl)methyl]-1,3-thiazole]: the melting point was 245 to 247 °C.
For `O=C(Nc1ccc(Br)cc1)c1csc(Nc2ccccc2Cl)n1` [Example 60], the melting point lay within 220.5 to 221.3 °C.
Consider `O=C(Nc1ccc(C(F)(F)F)nc1)c1csc(Cc2c(Cl)cccc2Cl)n1` [Example 24], for which the melting point was in the range of 139.1 to 147.1 °C.
Take `Cc1nc(Cc2c(Cl)cccc2Cl)sc1C(=O)Nc1ccc(C(F)(F)F)cc1` [Example 7, {2-[(2,6-Dichlorophenyl)methyl]-4-methyl(1,3-thiazol-5-yl)}-N-[4-(trifluoromethyl)phenyl]carboxamide]: the melting point was in the range of 180 to 183 °C.
`O=C(Nc1ccc(C(F)(F)F)nc1)c1csc(Cc2ccccc2F)n1` [Example 31] returned a melting point of 104.8 to 107.7 °C.
In the case of `O=C(Nc1ccc(C(F)(F)F)nc1)c1csc(Cc2c(F)cccc2Cl)n1` [Example 35], the melting point was in the range of 123.4 to 125.1 °C.
The result for `O=C(Nc1ccc(C(F)(F)F)cc1)c1csc(Nc2c(Cl)cncc2Cl)n1` [Example 2, {2-[(3,5-Dichloro(4-pyridyl))amino](1,3-thiazol-4-yl)}-N-[4-(trifluoromethyl)-phenyl]carboxamide] reads 195 to 197 °C.

The values above are taken from patent US20040157845A1, “Vanilloid receptor ligands and their use in treatments” (Amgen Inc., priority 2003, published 2004).
